Where two headings read alike, the source gives them in different places.
What was measured:
[1] = tested on: HCV genotype 1b (Con1) replicon in HUH-7 cells; assay: HCV replicon luciferase reporter assay, genotype 1b; assay type: cell-based; conditions: Hepatitis C virus, Huh-7, 72 h, 3 days incubation, read-out: LE_1b (EC50, range)
Procedure, shortened: (§1)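 Replicon inhibition for both genotypes was measured as Renilla luciferase signal (EnduRen, 7.5 μM final, 2 h) after 3-day, 37° C exposure of replicon-bearing HUH-7 cells in 4% FCS DMEM, 0.5% DMSO. The 1b construct carries S1179I; the 1a H77 construct carries P1496L and S2204I. Twenty-point, 3-fold dilutions were fitted four-parametrically for EC50, and CC50 was taken from multiplexed Cell Titer-Blue.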

[2] = tested on: HCV genotype 1a (H77 strain) replicon in HUH-7 cells; assay: HCV replicon luciferase reporter assay, genotype 1a; assay type: cell-based; conditions: Hepatitis C virus, Huh-7, 72 h, 3 days incubation, read-out: LE_1a (EC50, range)
Procedure, shortened: as §1

[3] = HCV genotype 1b replicon luciferase assay, range class
[4] = HCV genotype 1a replicon luciferase assay, range class
[5] = HCV genotype 1b replicon luciferase
[6] = HCV genotype 1a replicon luciferase

SMILES	EC50 [1, 3]	EC50 [2, 4]	EC50 [1, 5]	EC50 [2, 6]
C[C@@H]1CC/C=C\[C@@H]2C[C@@]2(C(=O)NS(=O)(=O)C2CC2)NC(=O)[C@@H]2C[C@@H](Oc3nc(OCC(F)F)cc4c(Cl)cccc34)CN2C(=O)[C@@H](NC(=O)OC(C)(C)C)[C@H](C)C1 [Compound 1076, tert-butyl ((2R,6S,7R,9R,13aS,14aR,16aS,Z)-2-((5-chloro-3-(2,2-difluoroethoxyl)isoquinolin-1-yl)oxy)-14a-((cyclopropylsulfonyl)carbamoyl)-7,9-dimethyl-5,16-dioxo-1,2,3,5,6,7,8,9,10,11,13a,14,14a,15,16,16a-hexadecahydrocyclopropa[e]pyrrolo[1,2-a][1,4]diazacyclopentadecin-6-yl)carbamate]	< 5.46 nM	< 5.46 nM		
COc1ccc2c(O[C@@H]3C[C@H]4C(=O)N[C@]5(C(=O)NS(=O)(=O)C6(CF)CC6)C[C@H]5/C=C\CC[C@@H](C)C[C@@H](C)[C@H](NC(=O)OC(C)(C)C(F)(F)F)C(=O)N4C3)nc(N3CCCC3)nc2c1 [Compound 3019, 1,1,1-trifluoro-2-methylpropan-2-yl((2R,6S,7R,9R,13aS,14aR,16aS,Z)-14a-(((1-(fluoromethyl)cyclopropyl)sulfonyl)carbamoyl)-2-((7-methoxy-2-(pyrrolidin-1-yl)quinazolin-4-yl)oxy)-7,9-dimethyl-5,16-dioxo-1,2,3,5,6,7,8,9,10,11,13a,14,14a,15,16,16a-hexadecahydrocyclopropa[e]pyrrolo[1,2-a][1,4]diazacyclopentadecin-6-yl)carbamate]	< 5.46 nM	4.82 to 103 nM		
COc1cc(F)cc2c(O[C@@H]3C[C@H]4C(=O)N[C@]5(C(=O)NS(=O)(=O)C6(C)CC6)C[C@H]5/C=C\CC[C@H](C)C[C@@H](C)[C@H](NC(=O)O[C@H](C)C(F)(F)F)C(=O)N4C3)nccc12 [Compound 3157, (R)-1,1,1-trifluoropropan-2-yl ((2R,6S,7R,9S,13aS,14aR,16aS,Z)-2-((7-fluoro-5-methoxyisoquinolin-1-yl)oxy)-7,9-dimethyl-14a-(((1-methylcyclopropyl)sulfonyl)carbamoyl)-5,16-dioxo-1,2,3,5,6,7,8,9,10,11,13a,14,14a,15,16,16a-hexadecahydrocyclopropa[e]pyrrolo[1,2-a][1,4]diazacyclopentadecin-6-yl)carbamate]	< 5.46 nM	4.82 to 103 nM		
CC[C@@H]1C[C@H](C)CC/C=C\[C@@H]2C[C@@]2(C(=O)NS(=O)(=O)C2CC2)NC(=O)[C@@H]2C[C@@H](Oc3nccc4cc(OC)ccc34)CN2C(=O)[C@H]1NC(=O)OC(C)(C)C(F)(F)F [Compound 4006, 1,1,1-trifluoro-2-methylpropan-2-yl (2R,6S,7R,9R,13aS,14aR,16aS,Z)-14a-(cyclopropylsulfonylcarbamoyl)-7-ethyl-2-(6-methoxyisoquinolin-1-yloxy)-9-methyl-5,16-dioxo-1,2,3,5,6,7,8,9,10,11,13a,14,14a,15,16,16a-hexadecahydrocyclopropa[e]pyrrolo[1,2-a][1,4]diazacyclopentadecin-6-ylcarbamate]			< 5.46 nM	< 5.46 nM
COc1ccc2c(O[C@@H]3C[C@H]4C(=O)N[C@]5(C(=O)NS(=O)(=O)C6CC6)C[C@H]5/C=C\CC[C@@H](C)C[C@@H](C)[C@H](NC(=O)OC(C)(C)C)C(=O)N4C3)ncnc2c1 [Compound 4032, tert-butyl (2R,6S,7R,9R,13aS,14aR,16aS,Z)-14a-(cyclopropylsulfonylcarbamoyl)-2-(7-methoxyquinazolin-4-yloxy)-7,9-dimethyl-5,16-dioxo-1,2,3,5,6,7,8,9,10,11,13a,14,14a,15,16,16a-hexadecahydrocyclopropa[e]pyrrolo[1,2-a][1,4]diazacyclopentadecin-6-ylcarbamate]			< 5.46 nM	< 5.46 nM
C[C@@H]1CC/C=C\[C@@H]2C[C@@]2(C(=O)NS(=O)(=O)C2(C)CC2)NC(=O)[C@@H]2C[C@@H](Oc3ncc(N4CCOCC4)c4ccccc34)CN2C(=O)[C@@H](NC(=O)OC(C)(C)C(C)(F)F)[C@H](C)C1 [Compound 5459, 3,3-difluoro-2-methylbutan-2-yl((2R,6S,7R,9R,13aS,14aR,16aS,Z)-7,9-dimethyl-14a-(((1-methylcyclopropyl)sulfonyl)carbamoyl)-2-((4-morpholinoisoquinolin-1-yl)oxy)-5,16-dioxo-1,2,3,5,6,7,8,9,10,11,13a,14,14a,15,16,16a-hexadecahydrocyclopropa[e]pyrrolo[1,2-a][1,4]diazacyclopentadecin-6-yl)carbamate]			1.01 to 5 nM	1.01 to 5 nM
COc1ccc2c(O[C@@H]3C[C@H]4C(=O)N[C@]5(C(=O)NS(=O)(=O)C6CC6)C[C@H]5/C=C\CC[C@@H](C)C[C@@H](C)[C@H](NC(=O)OC(C)(C)C)C(=O)N4C3)nc(-c3ccc(OC(C)C)cn3)cc2c1 [Compound 5201, tert-butyl ((2R,6S,7R,9R,13aS,14aR,16aS,Z)-14a-((cyclopropylsulfonyl)carbamoyl)-2-((3-(5-isopropoxypyridin-2-yl)-6-methoxyisoquinolin-1-yl)oxy)-7,9-dimethyl-5,16-dioxo-1,2,3,5,6,7,8,9,10,11,13a,14,14a,15,16,16a-hexadecahydrocyclopropa[e]pyrrolo[1,2-a][1,4]diazacyclopentadecin-6-yl)carbamate]			< 5.46 nM	< 5.46 nM
COCCOc1cnc(O[C@@H]2C[C@H]3C(=O)N[C@]4(C(=O)NS(=O)(=O)C5(C)CC5)C[C@H]4/C=C\CC[C@@H](C)C[C@@H](C)[C@H](NC(=O)OC(C)(C)C(F)(F)F)C(=O)N3C2)c2ccccc12 [Compound 1038, 1,1,1-trifluoro-2-methylpropan-2-yl((2R,6S,7R,9R,13aS,14aR,16aS,Z)-2-((4-(2-methoxyethoxyl)isoquinolin-1-yl)oxy)-7,9-dimethyl-14a-(((1-methylcyclopropyl)sulfonyl)carbamoyl)-5,16-dioxo-1,2,3,5,6,7,8,9,10,11,13a,14,14a,15,16,16a-hexadecahydrocyclopropa[e]pyrrolo[1,2-a][1,4]diazacyclopentadecin-6-yl)carbamate]	< 5.46 nM	< 5.46 nM		
C[C@@H]1CC/C=C\[C@@H]2C[C@@]2(C(=O)NS(=O)(=O)C2(C)CC2)NC(=O)[C@@H]2C[C@@H](Oc3nc4c(c5ccccc35)OCCC4)CN2C(=O)[C@@H](NC(=O)OC(C)(C)C(F)(F)F)[C@H](C)C1 [Compound 6022, 1,1,1-trifluoro-2-methylpropan-2-yl((2R,6S,7R,9R,13aS,14aR,16aS,Z)-2-((3,4-dihydro-2H-pyrano[3,2-c]isoquinolin-6-yl)oxy)-7,9-dimethyl-14a-(((1-methylcyclopropyl)sulfonyl)carbamoyl)-5,16-dioxo-1,2,3,5,6,7,8,9,10,11,13a,14,14a,15,16,16a-hexadecahydrocyclopropa[e]pyrrolo[1,2-a][1,4]diazacyclopentadecin-6-yl)carbamate]			< 5.46 nM	< 5.46 nM
C[C@@H]1CC/C=C\[C@@H]2C[C@@]2(C(=O)NS(=O)(=O)C2CC2)NC(=O)C2C[C@@H](Oc3nc4ccccc4c4ccccc34)CN2C(=O)[C@@H](NC(=O)OC(C)(C)C(F)(F)F)[C@H](C)C1 (stereo partly drawn) [Compound 5185, 1,1,1-trifluoro-2-methylpropan-2-yl((2R,6S,7R,9R,13aS,14aR,16aS,Z)-14a-((cyclopropylsulfonyl)carbamoyl)-7,9-dimethyl-5,16-dioxo-2-(phenanthridin-6-yloxy)-1,2,3,5,6,7,8,9,10,11,13a,14,14a,15,16,16a-hexadecahydrocyclopropa[e]pyrrolo[1,2-a][1,4]diazacyclopentadecin-6-yl)carbamate]			< 5.46 nM	< 5.46 nM
CC[C@@H]1C[C@H](C)CC/C=C\[C@@H]2C[C@@]2(C(=O)NS(=O)(=O)C2(C)CC2)NC(=O)[C@@H]2C[C@@H](Oc3nccc4cc(OC)c(Cl)cc34)CN2C(=O)[C@H]1NC(=O)OC(C)(C)C(C)(F)F [Compound 3224, 3,3-difluoro-2-methylbutan-2-yl((2R,6S,7R,9R,13aS,14aR,16aS,Z)-2-((7-chloro-6-methoxyisoquinolin-1-yl)oxy)-7-ethyl-9-methyl-14a-(((1-methylcyclopropyl)sulfonyl)carbamoyl)-5,16-dioxo-1,2,3,5,6,7,8,9,10,11,13a,14,14a,15,16,16a-hexadecahydrocyclopropa[e]pyrrolo[1,2-a][1,4]diazacyclopentadecin-6-yl)carbamate]			1.01 to 5 nM	1.01 to 5 nM
CC[C@@H]1C[C@H](C)CC/C=C\[C@@H]2C[C@@]2(C(=O)NS(=O)(=O)C2(C)CC2)NC(=O)[C@@H]2C[C@@H](Oc3cc4cc(OC)ccc4nc3OC)CN2C(=O)[C@H]1NC(=O)OC(C)(C)C [Compound 4377, tert-butyl ((2R,6S,7R,9R,13aS,14aR,16aS,Z)-2-((2,6-dimethoxyquinolin-3-yl)oxy)-7-ethyl-9-methyl-14a-(((1-methylcyclopropyl)sulfonyl)carbamoyl)-5,16-dioxo-1,2,3,5,6,7,8,9,10,11,13a,14,14a,15,16,16a-hexadecahydrocyclopropa[e]pyrrolo[1,2-a][1,4]diazacyclopentadecin-6-yl)carbamate]			0.1 to 0.5 nM	0.51 to 1 nM
COc1ccc2c(O[C@@H]3C[C@H]4C(=O)N[C@]5(C(=O)NS(=O)(=O)C6(C)CC6)C[C@H]5/C=C\CC[C@H](C)C[C@@H](C)[C@H](NC(=O)OC(C)(C)C(F)(F)F)C(=O)N4C3)nc(OC)cc2c1 [Compound 1132, 1,1,1-trifluoro-2-methylpropan-2-yl((2R,6S,7R,9S,13aS,14aR,16aS,Z)-2-((3,6-dimethoxyisoquinolin-1-yl)oxy)-7,9-dimethyl-14a-(((1-methylcyclopropyl)sulfonyl)carbamoyl)-5,16-dioxo-1,2,3,5,6,7,8,9,10,11,13a,14,14a,15,16,16a-hexadecahydrocyclopropa[e]pyrrolo[1,2-a][1,4]diazacyclopentadecin-6-yl)carbamate]	< 5.46 nM	< 5.46 nM		
